Test results from US6444706B2, “Guanidine derivatives, processes for preparing them and their use as pharmaceutical compositions” (priority 1996, dated 2002).
pIC50: −log10 of the molar value.

Assays:
herpes virus = assay: Virus replication in infected cell cultures, plaque assay of supernatant; type: cell-based; details: Fibroblast, herpes-infected monkey kidney cells or human fibroblasts, 24 hours, read-out: IC50 (concentration at which virus replication is inhibited by 50%)
Protocol: The virostatic properties were determined by in vitro tests. The following virus strains were used:
Cell cultures (monkey kidney cells or human fibroblasts) are infected with herpes and a series of cultures are exposed to medium containing various concentrations of the test substance. After 24 hours the concentration of the virus descendants in the cell culture supernatant is determined by plaque assays.

[1] = system: endotoxin from E. coli (lethal endotoxic shock); assay: Prevention of lethal endotoxic shock in the mouse by H2C11AG; type: in vivo, mice of the Balb C strain; details: 100 mg/kg by oesophageal tube 2 hours before 0.7 mg endotoxin i.p., 10 animals, observed 12 days
Protocol: 10 mice of the Balb C strain (about 8 weeks old) were given 0.7 mg of endotoxin from E. coli (in 0.2 ml of isotonic saline solution) by intraperitoneal injection. 10 animals were given 100 mg/kg of H2C11AG (dissolved in twice distilled water) by oesphageal tube 2 hours before the LPS treatment. The control animals were given water.

[2] = system: acidic SMase (microsome fraction from macrophage); assay: Inhibition of acidic SMase (14C sphingomyelin hydrolysis); type: biochemical; details: pH 5.6, untreated = 100%
Protocol: ^14C sphingomyelin (10 μg/ml) were incubated with neutral SMase (membrane fraction isolated from mouse brains, 10 μg protein/mixture, according to Gatt, S. Biochem. Biophys. Res. Commun. 68, 235-241, 1976) or with acidic SMase (microsome fraction from macrophage 5 μg of protein/mixture isolated according to Gatt, S. Biochem. Biophys. Res. Commun. 68, 235-241, 1976) in the presence of various concentrations of the test substances, for 2 hours at 37° C. in 20 mM Tris, 1 mM MgCl2, pH 7.5 (neutral SMase) or in 50 mM sodium acetate, 1 mM MgCl2, pH 5.6 (acid SMase). Then the samples were extracted with 5 times the volume of chloroform/methanol (1:1) and the content of radioactive phosphorylcholine in the aqueous phase was determined. The release of phosphorylcholine in the untreated mixtures corresponds to 100% enzyme activity.
^14C-sphingomyelin (10 μg/ml) was incubated with neutral SMase (membrane fraction from mouse brain, 10 μg of protein/batch, isolated according to Gatt, S. Biochem. Biophys. Res. Commun. 68, 235-241, 1976) or with acid SMase (microsome fraction from macrophages 5 μg of protein per batch [isolated according to S. Gatt, Biochem. Biophys. Res. Commun. 68, 235-241, (1976)] in the presence of various concentrations of the test substances for 2 hours at 37° C. in 20 mM Tris, 1 mM MgCl2, pH 7.5 (neutral SMase) or in 50 mM sodium acetate, 1 mM MgCl2, pH 5.6 (acidic SMase). Then the samples were extracted with 5 times the volume of chloroform/methanol (1:1) and the content of radioactive phosphorylcholine in the aqueous phase was determined. The release of phosphorylcholine in the untreated batches corresponds to 100%.

[3] = target: T1, neutral SMase (membrane fraction isolated from mice brains) (Mus musculus, UniProt Q9JJY3); assay: Inhibition of neutral SMase (14C sphingomyelin hydrolysis); type: biochemical; details: 2 h, pH 7.5, read-out: nSMase activity
T1 construct: membrane fraction isolated from mice brains, 10 μg of protein/mixture [according to S. Gatt, Biochem. Biophys; Res. Commun; 68, 235-241 (1976)]
T1 sequence (Q9JJY3 1-655): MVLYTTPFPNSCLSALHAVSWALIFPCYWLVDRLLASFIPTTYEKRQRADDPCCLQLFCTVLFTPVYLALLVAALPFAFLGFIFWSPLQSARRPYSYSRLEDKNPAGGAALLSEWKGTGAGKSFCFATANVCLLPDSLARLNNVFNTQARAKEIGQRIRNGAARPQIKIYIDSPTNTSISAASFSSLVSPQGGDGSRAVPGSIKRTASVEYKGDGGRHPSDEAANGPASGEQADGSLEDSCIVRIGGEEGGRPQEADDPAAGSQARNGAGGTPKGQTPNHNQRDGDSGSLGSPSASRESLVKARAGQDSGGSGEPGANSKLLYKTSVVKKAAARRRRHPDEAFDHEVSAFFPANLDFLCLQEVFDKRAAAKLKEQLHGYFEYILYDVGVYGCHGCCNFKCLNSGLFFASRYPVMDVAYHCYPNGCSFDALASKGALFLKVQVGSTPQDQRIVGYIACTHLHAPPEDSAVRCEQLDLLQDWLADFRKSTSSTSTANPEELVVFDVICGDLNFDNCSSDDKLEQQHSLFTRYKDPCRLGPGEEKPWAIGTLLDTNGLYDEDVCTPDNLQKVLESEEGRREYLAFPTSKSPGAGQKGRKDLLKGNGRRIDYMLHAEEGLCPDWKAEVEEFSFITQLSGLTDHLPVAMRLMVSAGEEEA
Protocol: Then the samples were extracted with 5 times the volume of chloroform/methanol (1:1) and the content of radioactive phosphorylcholine in the aqueous phase was determined. The release of phosphorylcholine in the untreated mixtures corresponds to 100% enzyme activity.
The release of phosphorylcholine in the untreated batches corresponds to 100%.

[4] = system: endotoxin from E. coli (endotoxic shock); assay: Protection from endotoxic shock by C11AG in mice; type: in vivo, mice (strain NMRI/Nu); details: 50 mg/kg subcutaneously 30 minutes before 0.2 mg endotoxin i.p.; nine animals; all 10 controls died within 24 hours
Protocol: Mice (strain NMRI/Nu, 8 weeks old, female) were each given 0.2 mg of endotoxin from E. coli (Sigma, Munich) by intraperitoneal route. The 10 control animals, who had been given 0.2 ml of 5% glucose subcutaneously, died within 24 hours. Nine animals were injected subcutaneously with 50 mg/kg of C11AG 30 minutes before the endotoxin treatment. Of this group, only 2 animals died.

[5] = system: collagen-induced arthritis; assay: Inhibition of collagen-induced arthritis in the mouse; type: in vivo, DBA/I mice; details: for Total Symptoms: day 7 after booster injection, 10 animals
Protocol: An autoimmune reaction against cartilagenous tissue was produced by injecting collagen into DBA/I mice as described (Holmdahl, R. et al., Immunology, 65, 305-310, 1988). Groups of 10 animals were used as control or were given 50 mg/kg or 100 mg/kg of C11AG per day by oral route. The drug was administered in the food (Altromin, powdered food) and the dosage was calculated from the daily food intake. The symptoms were evaluated daily for each individual paw from 0.5-3 as described [R. Holmdahl, et al., Immunology, 65, 305-310, (1988)].
20 days after the booster injection the animals were killed and the joints were examined by histopathology resulting in the following picture: […]

[6] = system: RAW cells (mouse macrophage line); assay: Inhibition of NO-synthase induction in macrophages (nitrite in culture medium); type: cell-based; details: 10 ng/ml LPS, 16 hours, without C11AG 0.122
Protocol: RAW cells (mouse macrophage line, origin: American Type Culture Collection) were treated with 10 ng/ml of endotoxin from E. coli (LPS) in the presence of different concentrations of C11AG. After 16 hours the nitrite content in the culture medium was measured using the method described [K. Tschaikowsky, M. Meisner, F. Schonhuber and E. Rugheimer, Br. J. Pharmacol. 113 (3): 664-8 (1994)].
The inhibition of NO-synthase induction is graphically shown in FIG. 3; the NO2 concentration [OD measured at 540 nm] is plotted against the C11AG concentration [μg/ml] for 10 ng/ml of LPS.

Compound CCCCCCCC=NNC(=N)N [1-(octylidene-amino)guanidine] has a pIC50 (herpes virus) of 4.30.
CCCCCCCCC=NNC(=N)N [1-(nonylidene-amino)guanidine] was tested, and the pIC50 (herpes virus) was 4.54.
In the case of CCCCCCCCCCCNNC(=N)N [H2C11AG, 1-(undecylamino) guanidine], the survivors ([1]; control 2 survivors) was 9, the “survivors (%)” value ([1]; control 20%) was 90% and the aSMase activity ([2]; 1 μg/ml) was 100%. It also gave an aSMase activity ([2]; 10 μg/ml) of 97%, an aSMase activity ([2]; 100 μg/ml) of 32% and an activity at 1 µg/mL [3] of 73%. For the same compound, the activity at 10 µg/mL [3] was 22% and the activity at 100 µg/mL [3] was 2%.
With CCCCCCCCCC=NNC(=N)N [1-(decylidene-amino)guanidine] the pIC50 (herpes virus) was 4.54.
Work on N=C(N)NN=C1C=Cc2cccc3cccc1c23 [1-(phenalen-1-ylidene-amino)guanidine, 1-(Phenalen-1-ylidene-amino)guanidine] yielded a pIC50 (herpes virus) of 4.34.
N=C(N)NN=Cc1c2ccccc2cc2ccccc12 [1-(Anthracen-9-ylmethylene-amino)guanidine] showed a pIC50 (herpes virus) of 5.82.
CCCCCCCCCCCC=NNC(=N)N [1-(dodecylideneamino)guanidine] gave a pIC50 (herpes virus) of 5.49.
CCCCCCCCCCC=NNC(=N)N [C11AG, 1-(undecylideneamino)guanidine] was tested, and the pIC50 (herpes virus) was 5.17, the animals died [4] was 2 and the aSMase activity ([2]; 1 μg/ml) was 101%. For the same compound, the aSMase activity ([2]; 10 μg/ml) was 102%, the aSMase activity ([2]; 100 μg/ml) was 31% and the “Total Symptoms” value ([5]; 50 mg/kg per day oral in food) was 4.5. For the same compound, the “Total Symptoms” value ([5]; 100 mg/kg per day oral in food) was 1, the “histopathology of joints (inflammatory processes)” value ([5]; 50 and 100 mg/kg, 20 days after booster injection) was “no such inflammatory processes could be detected” and the activity at 1 µg/mL [3] was 61%. For the same compound, the activity at 10 µg/mL [3] was 18%, the activity at 100 µg/mL [3] was 0% and the “OD 540 nm (nitrite content in culture medium)” value (“OD 540 nm” below) ([6]; 0.5 μg/ml C11AG) was 0.091. For the same compound, the “OD 540 nm” value ([6]; 1 μg/ml C11AG) was 0.075, the “OD 540 nm” value ([6]; 2 μg/ml C11AG) was 0.054 and the “OD 540 nm” value ([6]; 3 μg/ml C11AG) was 0.05. For the same compound, the “OD 540 nm” value ([6]; 4 μg/ml C11AG) was 0.038.
In the case of N=C(N)NN=Cc1c[nH]c2ccccc12 [1-(indol-3-ylmethylene-amino)guanidine, 1-(Indol-3-ylmethylene-amino)guanidine], the pIC50 (herpes virus) was 4.70.
